Assay results from patent US7341730B1, “Inhibitors of angiogenesis and tumor growth” (University of Southern California, priority 1998, dated 2008).
No end group written: not given here.

How the values were obtained:
Type in all cases: cell-based
[1] = tested on: KS Y-1 cells; experiment: KS Y-1 cell proliferation assay (MTT); details: concentration not given
Description: (§1) To determine if Saposin B polypeptides had anti-angiogenic activity, a series of overlapping polypeptides were synthesized and tested in the KS Y-1 cell proliferation assay. The overlapping polypeptides are SEQ ID NOs:13 though 43. Cell Proliferation assays in either KS cells or fibroblast. Cells were plated in 48 well plates at equal numbers in appropriate culture medium. Cells were treated with the test compounds at various concentrations on day one, and on day 3. MTT was done on day 5. KS cells were used to represent the activated endothelial cells, while fibroblast cells represent the control cells. The results are remarkable for the lack of toxicity to the fibroblast relative to the activated endothelial cells/KS cells.

[2] = tested on: fibroblast cells (T1); experiment: Fibroblast proliferation assay (MTT), control cells; details: for Cell Proliferation Activity (% of control), T1: concentration not printed
Description: as §1

[3] = tested on: endothelial cells (HUVEC); experiment: Growth inhibition of endothelial cells
Description: (§2) Typically, in an anti-proliferation assay, the suppression of growth in the presence of the compound to be tested is measured. For example, the above cells are incubated with the polypeptides of this invention for a suitable time and the decrease in the growth rate relative to a negative control, i.e., cells of the same cell line which have been incubated in media alone, is measured. Growth of the cell culture can be measured by any method acceptable to one of skill, including but not limited to, 3H-thymidine uptake, cell counting and tetrazolium dye uptake.
(§3) By SDS-PAGE, the bacterial product was smaller than the eukaryotic protein. Because prokaryotically expressed proteins are not glycosylated, the difference in molecular weights probably represents the presence of carbohydrate in the eukaryotic protein. Recombinant proteins were then tested in KS, endothelial and control cell lines. Activity was found only in KS cell lines and endothelial cells.

[4] = tested on: KS cell lines; experiment: Growth inhibition of KS cell lines by recombinant proteins; details: for growth inhibition / activity against KS cell lines: recombinant or naturally occurring protein
Description: as §2, §3

[5] = up to the highest concentration tested (50 μg/mL)

Molecule: GDVSQDSIQMV [SEQ ID NO:20]
- Cell Proliferation Activity (% of control), KS Y-1 ([1]; KS Y-1, first value column): 93 % of control
- Cell Proliferation Activity (% of control), KS Y-1 ([1]; KS Y-1): 84 % of control
- Fibroblast Proliferation, % of Control ([2]; 10 μg/mL): 95.7 % of Control
- Fibroblast Proliferation, % of Control ([2]; 50 μg/mL): 95.7 % of Control

Molecule: QDCIQMV [SEQ ID NO:31, QDCIQMV]
- Cell Proliferation Activity (% of control), KS Y-1 ([1]; KS Y-1, first value column): 74 % of control
- Cell Proliferation Activity (% of control), T1 ([2]; T1, first value column): 87 % of control
- Cell Proliferation Activity (% of control), T1 ([2]; T1, second value column): 80 % of control

Molecule: DVCQDC [SEQ ID NO:27]
- Cell Proliferation Activity (% of control), KS Y-1 ([1]; KS Y-1, first value column): 60 % of control
- Cell Proliferation Activity (% of control), KS Y-1 ([1]; KS Y-1): 22 % of control
- Cell Proliferation Activity (% of control), T1 ([2]; T1, first value column): 88 % of control
- Cell Proliferation Activity (% of control), T1 ([2]; T1, second value column): 75 % of control

Molecule: DCIQMV [SEQ ID NO:23]
- Cell Proliferation Activity (% of control), KS Y-1 ([1]; KS Y-1, first value column): 68 % of control
- Cell Proliferation Activity (% of control), KS Y-1 ([1]; KS Y-1): 51 % of control

Molecule: DVCQDCIQ [SEQ ID NO:25]
- Cell Proliferation Activity (% of control), KS Y-1 ([1]; KS Y-1, first value column): 72 % of control
- Cell Proliferation Activity (% of control), KS Y-1 ([1]; KS Y-1): 39 % of control
- Cell Proliferation Activity (% of control), T1 ([2]; T1, first value column): 98 % of control
- Cell Proliferation Activity (% of control), T1 ([2]; T1, second value column): 89 % of control

Molecule: GDVCQ [SEQ ID NO:22]
- Cell Proliferation Activity (% of control), KS Y-1 ([1]; KS Y-1, first value column): 59 % of control
- Cell Proliferation Activity (% of control), KS Y-1 ([1]; KS Y-1): 28 % of control
- Fibroblast Proliferation, % of Control ([2]; 1 μg/mL): 95.7 % of Control
- Fibroblast Proliferation, % of Control ([2]; 10 μg/mL): 95.7 % of Control
- Fibroblast Proliferation, % of Control ([2]; 50 μg/mL): 87.0 % of Control

Molecule: DVCQDCIQM [SEQ ID NO:24]
- Cell Proliferation Activity (% of control), KS Y-1 ([1]; KS Y-1, first value column): 68 % of control
- Cell Proliferation Activity (% of control), KS Y-1 ([1]; KS Y-1): 46 % of control
- Cell Proliferation Activity (% of control), T1 ([2]; T1, first value column): 96 % of control
- Cell Proliferation Activity (% of control), T1 ([2]; T1, second value column): 84 % of control

Molecule: DVCQDCIQMV [SEQ ID NO:21]
- growth inhibition / activity against endothelial cells [3]: Only endothelial cells show dose dependent growth inhibition
- Cell Proliferation Activity (% of control), KS Y-1 ([1]; KS Y-1, first value column): 29 % of control
- Fibroblast Proliferation, % of Control ([2]; 1 μg/mL): 100.0 % of Control
- Fibroblast Proliferation, % of Control ([2]; 50 μg/mL): 87.0 % of Control

Molecule: VCQDCIQMV [SEQ ID NO:29]
- Cell Proliferation Activity (% of control), KS Y-1 ([1]; KS Y-1, first value column): 65 % of control
- Cell Proliferation Activity (% of control), KS Y-1 ([1]; KS Y-1): 33 % of control
- Cell Proliferation Activity (% of control), T1 ([2]; T1, first value column): 95 % of control
- Cell Proliferation Activity (% of control), T1 ([2]; T1, second value column): 86 % of control

Molecule: DVCQDCI [SEQ ID NO:26]
- Cell Proliferation Activity (% of control), KS Y-1 ([1]; KS Y-1, first value column): 72 % of control
- Cell Proliferation Activity (% of control), KS Y-1 ([1]; KS Y-1): 40 % of control
- Cell Proliferation Activity (% of control), T1 ([2]; T1, first value column): 96 % of control
- Cell Proliferation Activity (% of control), T1 ([2]; T1, second value column): 81 % of control

Molecule: CQDCIQMV [SEQ ID NO:30]
- Cell Proliferation Activity (% of control), KS Y-1 ([1]; KS Y-1, first value column): 77 % of control
- Cell Proliferation Activity (% of control), KS Y-1 ([1]; KS Y-1): 35 % of control
- Cell Proliferation Activity (% of control), T1 ([2]; T1, first value column): 92 % of control
- Cell Proliferation Activity (% of control), T1 ([2]; T1, second value column): 84 % of control

B1: Saposin A: sphingolipid-binding glycoprotein derived from Prosaposin, recombinant (protein, UniProt P07602 60-142, looked up)
Saposin-A: SLPCDICKDVVTAAGDMLKDNATEEEILVYLEKTCDWLPKPNMSASCKEIVDSYLPVILDIIKGEMSRPGEVCSALNLCESLQ
modifications: Saposin-A
- growth inhibition / activity against endothelial cells [3]: no activity
- growth inhibition / activity against KS cell lines [4]: no activity

B2: Saposin C: sphingolipid-binding glycoprotein derived from Prosaposin, recombinant (protein, UniProt P07602 311-390, looked up)
Saposin-C: SDVYCEVCEFLVKEVTKLIDNNKTEKEILDAFDKMCSKLPKSLSEECQEVVDTYGSSILSILLEEVSPELVCSMLHLCSG
modifications: Saposin-C
- activity against endothelial cells [3, 5]: no activity
- activity against KS cell lines [4, 5]: no activity

B3: Saposin D: sphingolipid-binding glycoprotein derived from Prosaposin, recombinant (protein, UniProt P07602 405-486, looked up)
Saposin-D: DGGFCEVCKKLVGYLDRNLEKNSTKQEILAALEKGCSFLPDPYQKQCDQFVAEYEPVLIEILVEVMDPSFVCLKIGACPSAH
modifications: Saposin-D
- growth inhibition / activity against endothelial cells [3]: no activity
- growth inhibition / activity against KS cell lines [4]: no activity
